The source of these data is ChEMBL document CHEMBL1201862, “PubChem BioAssay data set” (2004).

Test systems include OVCAR-4; U-251; T47D; UACC-257; NCI-H460; BT-549; Hs-578T; MDA-MB-435; DU-145; HOP-62; COLO 205; CAKI-1; SK-OV-3; ACHN; A498; Malme-3M; RXF 393; EKVX; OVCAR-5; SR.
What all share (test): NCI-60 cell line screen, 48 h

Each structure is given as a SMILES string.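 The compound was tested at five concentrations on cells cultured in 96-well plates, with a 48-hour exposure period. GI50: concentration for 50% inhibition of growth.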 The source made the active and inactive calls. Rule as the data show it: active = GI50 up to about 1.1 µM and inactive = higher. Bounds are passed on as bounds.

For `C=CC[C@@H](N)C(=O)N(C)[C@@H](C)[C@@H](O)c1ccccc1`, the GI50 with OVCAR-4, in the assay on U-251, in the assay with T47D, in the assay with UACC-257, in the assay with NCI-H460 and in the assay with BT-549 was > 100 µM (inactive) throughout. Further, the GI50 in the assay with Hs-578T, in the assay on MDA-MB-435, in the assay with DU-145, with HOP-62, with COLO 205 and in the assay with CAKI-1 was > 100 µM (inactive) in each case. The GI50 with SK-OV-3, in the assay with ACHN and in the assay on A498 was > 100 µM (inactive) throughout.
Consider `COc1ccccc1NC(=S)Nc1cc(C)cc(C)n1`, for which the GI50 in the assay on OVCAR-4, with U-251, in the assay on T47D, in the assay with Malme-3M, with UACC-257 and in the assay on NCI-H460 was > 100 µM (inactive) each time. Also, the GI50 with BT-549 is > 100 µM (inactive); with MDA-MB-435, > 100 µM (inactive); in the assay with DU-145, > 100 µM (inactive); in the assay with RXF 393 it was > 100 µM (inactive); in the assay with HOP-62, > 63 µM (inactive); with COLO 205 it was > 100 µM (inactive). Further, the GI50 with EKVX, with CAKI-1, with SK-OV-3, with ACHN, in the assay on OVCAR-5 and in the assay on A498 was > 100 µM (inactive) each time.
`N#CCCN(C(=O)Nc1ccccc1)[C@H]1CCCC[C@@H]1N(C(=O)Nc1ccccc1)c1ccccc1`: the GI50 in the assay with OVCAR-4 was 64.6 µM (inactive); with U-251, > 100 µM (inactive); in the assay with T47D, > 100 µM (inactive); in the assay with Malme-3M it was > 100 µM (inactive); in the assay on UACC-257, > 100 µM (inactive); in the assay on SR, 19.3 µM (inactive). Besides, the GI50 is 48.2 µM (inactive) with NCI-H460; > 100 µM (inactive) in the assay on BT-549; > 100 µM (inactive) in the assay on MDA-MB-435; > 100 µM (inactive) in the assay with DU-145; 35.6 µM (inactive) in the assay with RXF 393; > 100 µM (inactive) in the assay with HOP-62. The GI50 with COLO 205 is 83 µM (inactive); in the assay with EKVX, 65.5 µM (inactive); with CAKI-1, > 100 µM (inactive); with SK-OV-3 it was > 100 µM (inactive); in the assay on ACHN it was > 100 µM (inactive); in the assay with OVCAR-5, > 100 µM (inactive).
With `CC(C)(C)c1cc(-c2cc(C(C)(C)C)n(-c3ccccc3)n2)nn1-c1ccccc1`, the GI50 in the assay with OVCAR-4 is > 100 µM (inactive); in the assay on U-251, > 100 µM (inactive); in the assay on T47D, 59.2 µM (inactive); with UACC-257, > 100 µM (inactive); in the assay on SR, > 100 µM (inactive); in the assay with NCI-H460 it was 61.5 µM (inactive). In addition, the GI50 with BT-549 was > 100 µM (inactive); in the assay with MDA-MB-435, 49.8 µM (inactive); in the assay on DU-145 it was > 100 µM (inactive); in the assay on RXF 393 it was > 100 µM (inactive); in the assay with HOP-62, > 100 µM (inactive); in the assay with COLO 205, 48.6 µM (inactive). The GI50 in the assay with EKVX was > 100 µM (inactive); in the assay on CAKI-1, > 100 µM (inactive); in the assay on SK-OV-3, > 100 µM (inactive); in the assay with ACHN it was 23.2 µM (inactive); in the assay on OVCAR-5 it was > 100 µM (inactive); with A498, > 100 µM (inactive).
Consider `CC(C)(C)OC(=O)C1C(=O)NC(=O)CC1CC(OCc1ccccc1)C(COCc1ccccc1)OCc1ccccc1` (centres undefined), for which the GI50 in the assay with OVCAR-4 is 6.55 µM (inactive); in the assay with U-251 it was 5.18 µM (inactive); in the assay with Malme-3M, 3.06 µM (inactive); with UACC-257, 15.5 µM (inactive); in the assay on SR, 3.87 µM (inactive); in the assay with NCI-H460, 13.4 µM (inactive). Moreover, the GI50 in the assay with BT-549 is 5.48 µM (inactive); with Hs-578T it was 14 µM (inactive); in the assay on MDA-MB-435, 5.3 µM (inactive); in the assay with DU-145, 23.6 µM (inactive); with RXF 393 it was 2.55 µM (inactive); with EKVX it was 16.5 µM (inactive). In addition, the figures for the GI50 with ACHN and in the assay with A498 were 10.2 µM (inactive) and 26.5 µM (inactive), respectively.
For `O=C1c2c(O)cc(O)cc2C(C2OC(CO)C(O)C(O)C2O)c2cc(CO)cc(O)c21` (centres undefined), the GI50 was > 100 µM (inactive) in the assay on OVCAR-4; > 100 µM (inactive) in the assay on U-251; > 100 µM (inactive) with T47D; 55.7 µM (inactive) in the assay on Malme-3M; > 100 µM (inactive) in the assay with UACC-257; > 100 µM (inactive) with SR. Further, the GI50 with NCI-H460, with BT-549, with MDA-MB-435, in the assay with DU-145, in the assay with HOP-62 and in the assay with COLO 205 was > 100 µM (inactive) in each case. Also, the GI50 with EKVX, in the assay on SK-OV-3, in the assay on ACHN, in the assay on OVCAR-5 and in the assay on A498 was > 100 µM (inactive) each time.
In the case of `CC1(C)OC(=O)C(C)(C)C(=O)O1`, the GI50 in the assay with OVCAR-4, in the assay on U-251, with T47D, in the assay with Malme-3M, in the assay on UACC-257 and in the assay on SR was > 100 µM (inactive) throughout. In addition, the GI50 in the assay on NCI-H460, in the assay on BT-549, in the assay on Hs-578T, with DU-145, in the assay with HOP-62 and with COLO 205 was > 100 µM (inactive) throughout. The GI50 in the assay on EKVX, with CAKI-1, in the assay on SK-OV-3, with ACHN and in the assay on OVCAR-5 was > 100 µM (inactive) in each case.
For the molecule `CCCCCCc1cc(C=O)sc1-c1ccc(-c2sc(-c3ccc(-c4ccc(-c5cc(CCCCCC)c(-c6ccc(-c7sc(C=O)cc7CCCCCC)s6)s5)s4)s3)cc2CCCCCC)s1`, the GI50 in the assay on OVCAR-4, in the assay with U-251, in the assay on T47D, in the assay on Malme-3M, in the assay on UACC-257 and in the assay with SR was > 100 µM (inactive) in each case. The GI50 with NCI-H460, with BT-549, in the assay with MDA-MB-435, in the assay on DU-145, with RXF 393 and in the assay with HOP-62 was > 100 µM (inactive) each time. Moreover, the GI50 with COLO 205, in the assay on EKVX, in the assay on CAKI-1, with SK-OV-3, with ACHN and with OVCAR-5 was > 100 µM (inactive) in each case. For the same molecule, in the assay with A498, the GI50 was > 100 µM (inactive).
On to `Cn1c2ccccc2c2c3c(c4c5ccccc5n(C)c4c21)C(=O)N(c1ccccc1)C3=O`, for which the GI50 in the assay with OVCAR-4, in the assay with U-251, with T47D, in the assay with Malme-3M, with UACC-257 and with SR was > 100 µM (inactive) each time. The GI50 with NCI-H460, in the assay with BT-549, in the assay on MDA-MB-435, with DU-145, with HOP-62 and in the assay with COLO 205 was > 100 µM (inactive) each time. For the same molecule, the GI50 in the assay with EKVX, in the assay with CAKI-1, in the assay with SK-OV-3, in the assay with ACHN, in the assay with OVCAR-5 and in the assay with A498 was > 100 µM (inactive) throughout.
With `COC(=O)C(C)(C)OCc1ccc(C2NC(=O)N(c3cccc(Cl)c3)C(=O)N2c2cccc(Cl)c2)cc1` (centres undefined), the GI50 in the assay with OVCAR-4 was 57.5 µM (inactive); in the assay on U-251 it was 58.5 µM (inactive); with UACC-257, 31.8 µM (inactive); with SR, 0.52 µM (active); with NCI-H460, 29.4 µM (inactive); in the assay on BT-549, 51.1 µM (inactive). In addition, the GI50 is 3.96 µM (inactive) with Hs-578T; 46 µM (inactive) in the assay on MDA-MB-435; 59.7 µM (inactive) in the assay with DU-145; 26.4 µM (inactive) with RXF 393; 99.8 µM (inactive) with HOP-62; 28.6 µM (inactive) with COLO 205. In addition, the GI50 with EKVX is 10.5 µM (inactive); with CAKI-1, 35.2 µM (inactive); in the assay on SK-OV-3 it was 54.3 µM (inactive); in the assay on ACHN it was 47.9 µM (inactive); in the assay on OVCAR-5, > 100 µM (inactive).
`CC(=O)OCCC1c2ccccc2-n2nc(-c3ccccc3)c(O)c21` (centres undefined): the GI50 was 14.3 µM (inactive) in the assay with OVCAR-4; 13.3 µM (inactive) in the assay with U-251; > 10 µM (inactive) in the assay on Malme-3M; 16.8 µM (inactive) in the assay on UACC-257; 11.4 µM (inactive) in the assay on SR; 14.5 µM (inactive) with NCI-H460. The GI50 was 17.1 µM (inactive) in the assay on BT-549; 19.5 µM (inactive) with Hs-578T; 16.9 µM (inactive) in the assay with MDA-MB-435; 17.7 µM (inactive) in the assay on DU-145; 12.3 µM (inactive) in the assay with RXF 393; 15.2 µM (inactive) in the assay on HOP-62. Besides, the GI50 in the assay with COLO 205 is 20.1 µM (inactive); in the assay on EKVX, 15.9 µM (inactive); in the assay with CAKI-1 it was 18.7 µM (inactive); in the assay with ACHN it was 19.1 µM (inactive); with OVCAR-5 it was 19.3 µM (inactive); with A498 it was 16.4 µM (inactive).
